# Literature values as cited in patent US9265757B2, “Methods of administering antihistamines” (APTAPHARMA INC., priority 2011, dated 2016).
# Conditions: second generation antihistamines; from time of administration to symptomatic relief
row,SMILES,lag time before onset of action
1,COc1ccc(CCN2CCC(Nc3nc4ccccc4n3Cc3ccc(F)cc3)CC2)cc1 [astemizole],several hours
2,O=C(O)COCCN1CCN(C(c2ccccc2)c2ccc(Cl)cc2)CC1 (stereo not shown) [cetirizine],several hours
3,CCOC(=O)N1CCC(=C2c3ccc(Cl)cc3CCc3cccnc32)CC1 [loratadine],several hours
4,CC(C)(C)c1ccc(C(O)CCCN2CCC(C(O)(c3ccccc3)c3ccccc3)CC2)cc1 (stereo not shown) [terfenadine],several hours
